Measured values published in PubChem BioAssay AID1918943 (Molecular Pharmacology Branch, DTP, NCI, 2023).

System: 855422-203-R-J1-PDC complex spheroid viability
Test: Anticancer human tumor 855422-203-R-J1-PDC patient-derived bladder carcinoma cell line growth inhibition
Conditions: for IC50: curve of first compound; for viability, T/C: stronger effect = lower value
Description: Multicellular complex tumor spheroid response to LSD1 Inhibitor Iadademstat in combination with a variety of drugs and investigational agents in selected tumor cell lines
The current study was undertaken to assess response to LSD1 inhibitors in combination with standard-of-care drugs and investigational agents in solid tumor complex spheroid models as well as in the K-562 leukemia. Complex spheroids include a stromal component modeled by human endothelial cells (HUVEC) and fibroblasts modeled by human mesenchymal stem cells (MSCs). The concentration ranges selected for each drug and investigational agent were based upon clinically achievable concentrations if the clinical Cmax of the agent was known.
Compounds. The drugs and investigational agents used in this study are listed on Table 1. All of the agents used, including staurosporine (NSC755774) and gemcitabine (NSC613327), were obtained from the Developmental Therapeutics Program, NCI. FDA-approved anticancer drugs are available from the NCI at http://dtp.nci.nih.gov/branches/dscb/oncology_drugset_explanation.html. Drugs and investigational agents were >95% pure by proton nuclear magnetic resonance (NMR) and liquid chromatography/mass spectrometry (LC/MS). Stock solutions were prepared at 400x in DMSO, stored at -70 degrees C, and diluted in fresh medium prior to their use. The final concentration of DMSO in cell culture wells never exceeded 0.25% (v/v). The FDA-approved anticancer drug set is available from the Developmental Therapeutics Program at https://dtp.cancer.gov/organization/dscb/obtaining/available_plates.htm. All drugs and investigational agents were tested over a range starting from a high concentration at or near the clinical Cmax and decreasing in half-log increments. If the clinical Cmax for an agent had not been determined, the highest concentration tested was 10 microM.
Cell Lines. The patient-derived cancer cell (PDC) lines: 292921-168-R-J2-PDC, K24384-001-R-PDC, and 521955-158-R2-J5-PDC pancreatic carcinomas, 556581-035-R-J1 ovarian carcinoma, 324938-238-R-J1-PDC, 855422-203-R-J1-PDC and 883617-216-R-J1-PDC urothelial bladder carcinomas, 743489-274-T-PDC renal cell carcinoma, 138582-R-J1 Merkel cell tumor, K60290-347-R-J1 and K57222-313-R-J1-PDC glioblastomas, 653999-131-R-J2-PDC, LG0703-F948-PDC, and 349418-098-R-PDC non-small cell lung carcinomas, 885512-296-R-J2-PDC, 171881-019-R-J1-PDC breast carcinomas and 186277-243-T-J2-PDC and 233499-124-R-J2-PDC colon carcinomas were obtained from the NCI Patient-Derived Models Repository (PDMR, https://pdmr.cancer.gov). The established cell lines NCI/ADR-RES (RRID:CVCL_14520 and OVCAR-5 (RRID:CVCL_1628) ovarian carcinomas, 786-O (RRID:CVCL_1051) and A498 (RRID:CVCL_A498) renal cell carcinoma, NCI-H211 (ATCC, cat. CRL-5824; RRID:CVCL_1529), NCI-H196 (ATCC, cat. CRL-5823, RRID:CVCL_1509), SW 1271 (ATCC, cat. CRL-2177, RRID:CVCL_1716) and NCI-H1876 (ATCC, cat. CRL-5902, RRID:CVCL_1503) small cell lung carcinomas, MDA-MB-231 (RRID:CVCL_0062) and MDA-MB-468 (RRID:CVCL_0419)breast carcinomas (10-12). Pooled donor human umbilical vein endothelial cells (HUVEC, Lonza, cat. CC-2519) and human mesenchymal stem cells (hMSC, Lonza, cat. PT-2501) were purchased from Lonza (Walkersville, MD).
Cell Culture. All cells were maintained in an incubator at 37 degrees C and 5% CO2 with 95% humidity. The PDC lines were cultured according to standard operating procedures established by the NCI PDMR (https://pdmr.cancer.gov). Briefly all PDCs were thawed and cultured in Matrigel-coated flasks prepared with a working solution of 1X Ham's F-12 nutrient mix, without supplementation (Invitrogen, Waltham, MA, cat. 11765054), 100 U/mL penicillin-streptomycin (Invitrogen, cat. 15140122), and 2.5% Matrigel (Corning Inc., Corning, NY, cat. 354248) for the first three passages. […]
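Note: drug exposure lasted 7 days starting on day 3 after seeding.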
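Throughout, for viability, T/C: luminescence viability as percent of DMSO vehicle wells = 100%.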

Structure (SMILES): Nc1ccccc1NC(=O)c1ccc(CNC(=O)OCc2cccnc2)cc1 + NC1CCC(NC2CC2c2ccccc2)CC1
- IC50 (second compound 0.1 µM): 1340 nM
- IC50 (second compound 0.316 µM): 1430 nM
- IC50 (second compound 1 µM): 1370 nM
- IC50 (second compound 3.16 µM): 1390 nM
- IC50 (second compound 10 µM): 1060 nM
- viability, T/C (second compound 0.1 µM, first compound 0.00949 µM): 94.5%
- viability, T/C (second compound 0.1 µM, first compound 0.03 µM): 85%
- viability, T/C (second compound 0.1 µM, first compound 0.0949 µM): 93.3%
- viability, T/C (second compound 0.1 µM, first compound 0.3 µM): 96.1%
- viability, T/C (second compound 0.1 µM, first compound 0.949 µM): 66.1%
- viability, T/C (second compound 0.1 µM, first compound 3 µM): 12.3%
- viability, T/C (second compound 0.316 µM, first compound 0.00949 µM): 93.5%
- viability, T/C (second compound 0.316 µM, first compound 0.03 µM): 87.5%
- viability, T/C (second compound 0.316 µM, first compound 0.0949 µM): 91.5%
- viability, T/C (second compound 0.316 µM, first compound 0.3 µM): 95%
- viability, T/C (second compound 0.316 µM, first compound 0.949 µM): 73.1%
- viability, T/C (second compound 0.316 µM, first compound 3 µM): 9.06%
- viability, T/C (second compound 1 µM, first compound 0.00949 µM): 93.2%
- viability, T/C (second compound 1 µM, first compound 0.03 µM): 90.9%
- viability, T/C (second compound 1 µM, first compound 0.0949 µM): 98%
- viability, T/C (second compound 1 µM, first compound 0.3 µM): 95.9%
- viability, T/C (second compound 1 µM, first compound 0.949 µM): 69.5%
- viability, T/C (second compound 1 µM, first compound 3 µM): 9.07%
- viability, T/C (second compound 3.16 µM, first compound 0.00949 µM): 84.6%
- viability, T/C (second compound 3.16 µM, first compound 0.03 µM): 84.2%
- viability, T/C (second compound 3.16 µM, first compound 0.0949 µM): 87.8%
- viability, T/C (second compound 3.16 µM, first compound 0.3 µM): 85.5%
- viability, T/C (second compound 3.16 µM, first compound 0.949 µM): 72%
- viability, T/C (second compound 3.16 µM, first compound 3 µM): 5.75%
- viability, T/C (second compound 10 µM, first compound 0.00949 µM): 88.7%
- viability, T/C (second compound 10 µM, first compound 0.03 µM): 81.2%
- viability, T/C (second compound 10 µM, first compound 0.0949 µM): 86.2%
- viability, T/C (second compound 10 µM, first compound 0.3 µM): 87.3%
- viability, T/C (second compound 10 µM, first compound 0.949 µM): 55.2%
- viability, T/C (second compound 10 µM, first compound 3 µM): 1.52%
